Experimental data from patent US20080085264A1, “METHODS FOR ENHANCING STEM CELL ENGRAFTMENT DURING TRANSPLANTATION” (priority 2003, published 2008).

How the values were obtained:
BoyJ recipient mice [1] = assay: Short-term homing of donor Sca-1+lin- cells to recipient bone marrow; assay type: in vivo, mouse
Experimental: Control C57BL/6 (CD45.2^+), CD26 inhibitor treated C57BL/6 (CD45.2^+), or CD26^−/− (CD45.2^+) sorted Sca-1^+lin^− or LD donor BM cells were transplanted by tail-vein injection into lethally irradiated (1100 cGy split dose) congenic BoyJ (CD45.1^+) female recipient mice (Haneline L S, et al. Blood. 1999; 94:1-8.) Contribution of Sca^+lin^− donor cells in the context of Sca-1^+lin^− recipient cells was calculated by flow cytometric analysis of cells found in the recipient mouse BM by measuring CD45.1+ and CD45.2^+ on Sca-1^+lin^− LD cells isolated from the recipient mice 24 hours post transplant. […] Comparisons between treatment groups were made using a two-tailed Student's t-test and data was plotted as mean (M)±standard error of the mean (SEM).

C57BL/6 mice [2] = assay: G-CSF induced mobilization of HSC/HPC in C57BL/6 mice (progenitor cell assays of peripheral blood); assay type: in vivo, mouse; details: for effect of scrambled peptides on mobilization: C57BL/6, data not shown
Experimental: (§1) Mobilization was achieved by treating mice with 2.5 μg (micrograms) G-CSF/mouse 2×/day s.c. for 2 days (Broxmeyer H E, et al. J Exp Med. 1999; 189:1987-1992). Mice simultaneously treated with a specific CD26 inhibitor also underwent treatment with either 5 μmol Diprotin A/mouse 2×/day s.c. for 2 days or 5 μmol Val-Pyr/mouse 2×/day s.c. for 2 days. Diprotin A was obtained commercially (Peptides International, Louisville, Ky.) and Val-Pyr was obtained as a gift from Nicolai Wagtmann (Novo Nordisk, Denmark). After either G-CSF or G-CSF plus CD26 inhibitor treatment peripheral blood cells were collected and total cellular nuclearity was measured and progenitor cell assays were performed using total peripheral blood cells.
(§2) One-hundred thousand mouse G-CSF mobilized peripheral blood cells were plated in triplicate for colony formation by CFU-GM, BFU-E, and CFU-GEMM and scored at 7 days incubation as previously described (Cooper S, Broxmeyer H E. Measurement of interleukin-3 and other hematopoietic growth factors, such as GM-CSF, G-CSF, M-CSF, erkythropoietin and the potent co-stimulating cytokines steel factor and FLt-3 ligand. In: Coligan J E K A, Margulies D H, Shevach E M, Strober E, Coico R, ed. Current protocols in immunology. New York: John Wiley & Sons; 1996:6.4.1-6.4.12). Cells were plated for colony formation in 1% methylcellulose culture medium containing 30% FBS, 1 U/ml recombinant(r) human Epo, 0.1 mM Hemin, 5% Pokeweed Mitogen Spleen Conditioned Media (PWMSCM), and 50 ng/ml rmouse Steel Factor (=Stem Cell Factor, SCF).

DBA/2 mice [3] = assay: G-CSF induced mobilization of HSC/HPC in DBA/2 mice (progenitor cell assays of peripheral blood); assay type: in vivo, mouse
Experimental: as §1, §2

BoyJ recipient mice [4] = assay: Non-competitive long-term engraftment; assay type: in vivo, mouse; details: six months post transplant, P<0.05, n=5
Experimental: Control C57BL/6 (CD45.2^+) or CD26 inhibitor treated C57BL/6 (CD45.2^+) LD donor BM cells were transplanted by tail-vein injection into lethally irradiated (1100 cGy split dose) congenic BoyJ (CD45.1^+) female recipient mice (Haneline L S, et al. Blood. 1999; 94:1-8). Contribution of donor cells was obtained by measuring the number of donor and residual recipient lymphocytes in the peripheral blood. The % donor contribution was calculated by flow cytometric analysis of peripheral blood lymphocytes found in the recipient mouse peripheral blood by measuring CD45.1^+ and CD45.2^+ on cells isolated from the recipient mice 1-6 months post transplant. No less than five mice from each recipient group were analyzed, each one having received a transplant of 5×10^5 pooled LD donor BM cells. Comparisons between treatment groups were made using a two-tailed Student's t-test and data was plotted as mean (M)±standard error of the mean (SEM).

C57BL/6 mice [5] = assay: G-CSF induced mobilization of HSC/HPC in C57BL/6 mice (progenitor cell assays of peripheral blood); assay type: in vivo; details: 5 μmol/mouse 2×/day s.c. alone, without G-CSF
DBA/2 mice [6] = assay: G-CSF induced mobilization of HSC/HPC in DBA/2 mice (progenitor cell assays of peripheral blood); assay type: in vivo, mouse; details: without G-CSF
BoyJ irradiated mice = assay: Competitive repopulation assay; assay type: in vivo, mouse; details: six months post transplant, 5×10^5 or 2.5×10^5 donor cells vs 5×10^5 competitor BoyJ cells
Description: Donor LDBM cells (5×10^5) from representative mice from each test group were transplanted into lethally irradiated BoyJ mice (expressing CD45.1) Quantitative contribution to chimerism was obtained 2-6 months post-transplantation in the same manner described for long-term engraftment assays.
Eight week old female recipient mice were lethally irradiated (1100 cGy split dose) prior to transplantation as previously described (Haneline L S, et al. Blood. 1999; 94:1-8). Limiting dilutions of donor LD BM cells (5×10^5, 2.5×10^5, 1.25×10^5, and 0.625×10^5 cells) from control C57Bl/6 mice, CD26-inhibitor treated LD BM cells, or untreated LD BM cells from CD26^−/− mice (all expressing CD45.2) are co-transplanted with a constant number (5×10^5) of pooled competitive BM cells from congenic BoyJ mice (expressing CD45.1), into BoyJ irradiated mice. To determine quantitatively the relative cell contribution to chimerism of each test cell population tail-vein blood samples were obtained post-transplantation each month for three months and CD45.1 and CD45.2 was measured by flow-cytometry. Cells were divided into CD26 inhibitor (either Diprotin A or Val-Pyr) treated or untreated groups obtained from normal C57BL/6 mice and untreated cells obtained from CD26^−/− mice. […]

CD26-/- mice = assay: G-CSF induced mobilization of progenitors in CD26-/- mice; assay type: in vivo, mouse; details: CD26-/- mice on C57Bl/6 background
Experimental: as §1
One-hundred thousand mouse G-CSF mobilized peripheral blood cells were plated in triplicate for colony formation by CFU-GM, BFU-E, and CFU-GEMM and scored at 7 days incubation as previously described (Cooper S, Broxmeyer H E. Measurement of interleukin-3 and other hematopoietic growth factors, such as GM-CSF, G-CSF, M-CSF, erkythropoietin and the potent co-stimulating cytokines steel factor and FLt-3 ligand. In: Coligan J E K A, Margulies D H, Shevach E M, Strober E, Coico R, ed. Current protocols in immunology. New York: John Wiley & Sons; 1996:6.4.1-6.4.12). […]

[7] = inhibitor 5 μmol/mouse 2×/day s.c. during G-CSF mobilization, C57BL/6
[8] = inhibitor treatment during G-CSF mobilization
[9] = 2.5 μg G-CSF/mouse 2×/day s.c., C57BL/6

Molecule: c1cc(CN2CCCNCCNCCCNCC2)ccc1CN1CCCNCCNCCCNCC1 [AMD3100]
- effect on the increase in homing efficiency generated by inhibition or loss of CD26 (BoyJ recipient mice [1]; 10×10^6 LDBM donor cells treated with AMD3100 for 15 minutes prior to transplantation): reversed the increase in homing efficiency
- homing efficiency compared to control LDBM cells (BoyJ recipient mice [1]; AMD3100 treatment alone, no CD26 inhibitor): reduction in homing efficiency

Molecule: CC(C)[C@H](N)C(=O)N1CCCC1 [Val-Pyr, Valine-Pyrrolidide]
- reduction in BFU-E compared to G-CSF alone (C57BL/6 mice [2]; [7]): 22%
- reduction in CFU-GEMM compared to G-CSF alone (C57BL/6 mice [2]; [7]): 62%
- reduction in CFU-GM compared to G-CSF alone (C57BL/6 mice [2]; [7]): 55%
- short-term homing of donor cells (BoyJ recipient mice [1]; donor LDBM unit treated prior to transplant, P<0.01, n=6): significant increase in short-term homing
- reduction in BFU-E compared to G-CSF alone (DBA/2 mice [3]; [8]): 49%
- reduction in CFU-GEMM compared to G-CSF alone (DBA/2 mice [3]; [8]): 56%
- reduction in CFU-GM compared to G-CSF alone (DBA/2 mice [3]; [8]): 52%
- donor cell contribution to the formation of peripheral blood leukocytes (BoyJ recipient mice [4]): Increased donor cell contribution
- effect on the mobilization of progenitors, inhibitor alone (C57BL/6 mice [5]): little or no effect
- effect on the mobilization of progenitors, inhibitor alone (DBA/2 mice [6]): little or no effect
- donor contribution to chimerism (BoyJ irradiated mice): increased donor contribution to chimerism

Molecule: Ile-Ile-Pro
- effect of scrambled peptides on mobilization (C57BL/6 mice [2]): no effect

Molecule: Pro-Ile-Ile
- effect of scrambled peptides on mobilization (C57BL/6 mice [2]): no effect

B1: G-CSF: cytokine used to induce mobilization of HSC/HPC (protein, UniProt P09919 31-207, looked up)
Granulocyte …: TPLGPASSLPQSFLLKCLEQVRKIQGDGAALQEKLVSECATYKLCHPEELVLLGHSLGIPWAPLSSCPSQALQLAGCLSQLHSGLFLYQGLLQALEGISPELGPTLDTLQLDVADFATTIWQQMEELGMAPALQPTQGAMPAFASAFQRRAGGVLVASHLQSFLEVSYRVLRHLAQP
- BFU-E mobilized to peripheral blood (C57BL/6 mice [2]; [9]): 1027±107 BFU-E/ml
- CFU-GEMM mobilized to peripheral blood (C57BL/6 mice [2]; [9]): 442±35 CFU-GEMM/ml
- CFU-GM mobilized to peripheral blood (C57BL/6 mice [2]; [9]): 2348±249 CFU-GM/ml
- mobilization of progenitor cells by G-CSF (CD26-/- mice): low, but significant, mobilization
- BFU-E mobilized to peripheral blood (DBA/2 mice [3]; 2.5 μg G-CSF/mouse 2×/day s.c.): 2219±141 BFU-E/ml
- CFU-GEMM mobilized to peripheral blood (DBA/2 mice [3]; 2.5 μg G-CSF/mouse 2×/day s.c.): 1186±163 CFU-GEMM/ml
- CFU-GM mobilized to peripheral blood (DBA/2 mice [3]; 2.5 μg G-CSF/mouse 2×/day s.c.): 8145±1038 CFU-GM/ml
